Data reported in PubChem BioAssay AID308 (DTP/NCI, 2004).
Values joined by “and” are separate entries in the source; they are usually repeats but may differ in a detail not shown here. Equal values may be shown once. Toxic doses and inconclusive results are not listed.

System: BDF1 mice, L1210 6-MP/6-TG resistant leukemia ip, survival T/C
Assay: NCI In Vivo Anticancer Drug Screen. Data for tumor model L1210 Leukemia resistant to 6-MP and 6-Thioguanine; NSC 755, NSC 752 (intraperitoneal) in B6D2F1 (BDF1) mice
Conditions: endpoint: mean survival time, higher = longer survival
Procedure: The antitumor activity of compounds was measured in mice bearing transplantable tumors. Survival or tumor size were measured and the results are expressed as the measurement made in the treated group (T) divided by the measurement made in the vehicle treated control group (C). The tumor model used in this assay is L1210 Leukemia resistant to 6-MP and 6-Thioguanine; NSC 755, NSC 752 (intraperitoneal) in B6D2F1 (BDF1) mice

[1] = dose: 4.0 mg/kg/injection, schedule: Q01DX Z (ip), vehicle: carboxymethylcellulose (CMC)
[2] = dose: 6.0 mg/kg/injection, schedule: Q01DX Z (ip), vehicle: carboxymethylcellulose (CMC)
[3] = dose: 150.0 mg/kg/injection, schedule: Q01DX Z (ip), vehicle: carboxymethylcellulose (CMC)
[4] = dose: 1.5 mg/kg/injection, schedule: Q01DX Z (ip), vehicle: carboxymethylcellulose (CMC)
[5] = dose: 3.0 mg/kg/injection, schedule: Q01DX Z (ip), vehicle: carboxymethylcellulose (CMC)

SMILES: CNS(=O)(=O)c1ncnc2nc[nH]c12
- T/C (dose: 13.0 mg/kg/injection, schedule: Q01DX Z (ip), vehicle: carboxymethylcellulose (CMC)): 114 % of control
- T/C (dose: 32.0 mg/kg/injection, schedule: Q01DX Z (ip), vehicle: carboxymethylcellulose (CMC)): 114 % of control
- T/C (dose: 47.0 mg/kg/injection, schedule: Q01DX Z (ip), vehicle: carboxymethylcellulose (CMC)): 123 % of control
- T/C (dose: 58.0 mg/kg/injection, schedule: Q01DX Z (ip), vehicle: carboxymethylcellulose (CMC)): 108 % of control
- T/C (dose: 70.6 mg/kg/injection, schedule: Q01DX Z (ip), vehicle: carboxymethylcellulose (CMC)): 117 % of control
- T/C (dose: 107.0 mg/kg/injection, schedule: Q01DX Z (ip), vehicle: carboxymethylcellulose (CMC)): 113 % of control
- T/C (dose: 160.5 mg/kg/injection, schedule: Q01DX Z (ip), vehicle: carboxymethylcellulose (CMC)): 105 % of control

SMILES: Clc1ccccc1CSc1ncnc2nc[nH]c12
- T/C (dose: 62.5 mg/kg/injection, schedule: Q01DX Z (ip), vehicle: other): 96 % of control
- T/C (dose: 125.0 mg/kg/injection, schedule: Q01DX Z (ip), vehicle: other): 92 % of control
- T/C (dose: 250.0 mg/kg/injection, schedule: Q01DX Z (ip), vehicle: other): 86 % of control

SMILES: CN(Cc1cnc2nc(N)nc(N)c2n1)c1ccc(C(=O)N[C@@H](CCC(=O)O)C(=O)O)cc1
- T/C (dose: 0.6 mg/kg/injection, schedule: Q02DX010 (ip), vehicle: carboxymethylcellulose (CMC)): 172 % of control
- T/C (dose: 0.9 mg/kg/injection, schedule: Q02DX010 (ip), vehicle: carboxymethylcellulose (CMC)): 163 % of control
- T/C (dose: 1.3 mg/kg/injection, schedule: Q02DX010 (ip), vehicle: carboxymethylcellulose (CMC)): 220 % of control
- T/C (dose: 2.0 mg/kg/injection, schedule: Q02DX010 (ip), vehicle: carboxymethylcellulose (CMC)): 261 % of control
- T/C (dose: 3.0 mg/kg/injection, schedule: Q02DX010 (ip), vehicle: carboxymethylcellulose (CMC)): 282 % of control
- T/C (dose: 4.5 mg/kg/injection, schedule: Q02DX010 (ip), vehicle: carboxymethylcellulose (CMC)): 294 % of control
- T/C (dose: 6.75 mg/kg/injection, schedule: Q02DX010 (ip), vehicle: carboxymethylcellulose (CMC)): 290 % of control

SMILES: O=C(Nc1ccc(C2=NCCN2)cc1)c1ccc(C(=O)Nc2ccc(C3=NCCN3)cc2)c([N+](=O)[O-])c1
- T/C (dose: 0.5 mg/kg/injection, schedule: Q01DX Z (ip), vehicle: methylcellulose (MC)): 98 % of control
- T/C (dose: 1.0 mg/kg/injection, schedule: Q01DX Z (ip), vehicle: methylcellulose (MC)): 93 % of control
- T/C (dose: 2.0 mg/kg/injection, schedule: Q01DX Z (ip), vehicle: carboxymethylcellulose (CMC)): 181 % of control
- T/C (dose: 2.0 mg/kg/injection, schedule: Q01DX Z (ip), vehicle: methylcellulose (MC)): 112 % of control
- T/C [1]: 233 % of control
- T/C [2]: 186 % of control
- T/C (dose: 6.0 mg/kg/injection, schedule: Q01DX Z (ip), vehicle: methylcellulose (MC)): 224 % of control
- T/C (dose: 8.0 mg/kg/injection, schedule: Q01DX Z (ip), vehicle: carboxymethylcellulose (CMC)): 124 % of control and 232 % of control
- T/C (dose: 12.0 mg/kg/injection, schedule: Q01DX Z (ip), vehicle: carboxymethylcellulose (CMC)): 173 % of control
- T/C (dose: 27.0 mg/kg/injection, schedule: Q01DX Z (ip), vehicle: carboxymethylcellulose (CMC)): 107 % of control
- T/C (dose: 27.0 mg/kg/injection, schedule: Q02DX010 (ip), vehicle: saline): 224 % of control
- T/C (dose: 60.0 mg/kg/injection, schedule: Q02DX010 (ip), vehicle: saline): 111 % of control

SMILES: CCCSc1nc(N)nc2nc[nH]c12
- T/C (dose: 12.0 mg/kg/injection, schedule: Q01DX Z (ip), vehicle: saline): 114 % of control
- T/C (dose: 25.0 mg/kg/injection, schedule: Q01DX Z (ip), vehicle: saline): 106 % of control
- T/C (dose: 50.0 mg/kg/injection, schedule: Q01DX Z (ip), vehicle: saline): 107 % of control
- T/C (dose: 100.0 mg/kg/injection, schedule: Q01DX Z (ip), vehicle: saline): 103 % of control
- T/C [3]: 91 % of control

SMILES: OCC1OC(n2cnc3c(Cl)ncnc32)C(O)C1O (configuration not stated)
- T/C (dose: 62.5 mg/kg/injection, schedule: Q01DX Z (ip), vehicle: carboxymethylcellulose (CMC)): 91 % of control
- T/C (dose: 125.0 mg/kg/injection, schedule: Q01DX Z (ip), vehicle: carboxymethylcellulose (CMC)): 89 % of control
- T/C (dose: 250.0 mg/kg/injection, schedule: Q01DX Z (ip), vehicle: carboxymethylcellulose (CMC)): 95 % of control
- T/C (dose: 500.0 mg/kg/injection, schedule: Q01DX Z (ip), vehicle: carboxymethylcellulose (CMC)): 95 % of control
- T/C (dose: 1000.0 mg/kg/injection, schedule: Q01DX001 (ip), vehicle: carboxymethylcellulose (CMC)): 92 % of control and 97 % of control
- T/C (dose: 1500.0 mg/kg/injection, schedule: Q01DX001 (ip), vehicle: carboxymethylcellulose (CMC)): 94 % of control and 99 % of control
- T/C (dose: 2000.0 mg/kg/injection, schedule: Q01DX001 (ip), vehicle: carboxymethylcellulose (CMC)): 94 % of control and 97 % of control

SMILES: O=C(Nc1ccc(C2=NCCCN2)cc1)c1ccc(NC(=O)c2ccc(C3=NCCCN3)cc2)cc1
- T/C (dose: 0.75 mg/kg/injection, schedule: Q01DX Z (ip), vehicle: carboxymethylcellulose (CMC)): 113 % of control
- T/C [4]: 116 % of control
- T/C [5]: 272 % of control
- T/C [1]: 235 % of control
- T/C [2]: 185 % of control
- T/C (dose: 16.0 mg/kg/injection, schedule: Q01DX Z (ip), vehicle: carboxymethylcellulose (CMC)): 106 % of control

SMILES: c1ccc(CNc2ncnc3[nH]ncc23)cc1
- T/C [4]: 96 % of control
- T/C [5]: 93 % of control
- T/C (dose: 6.25 mg/kg/injection, schedule: Q01DX Z (ip), vehicle: carboxymethylcellulose (CMC)): 101 % of control
- T/C (dose: 12.5 mg/kg/injection, schedule: Q01DX Z (ip), vehicle: carboxymethylcellulose (CMC)): 88 % of control
- T/C (dose: 25.0 mg/kg/injection, schedule: Q01DX Z (ip), vehicle: carboxymethylcellulose (CMC)): 92 % of control
- T/C (dose: 50.0 mg/kg/injection, schedule: Q01DX Z (ip), vehicle: carboxymethylcellulose (CMC)): 93 % of control

SMILES: CCC1(Sc2ncnc3nc[nH]c23)C(=O)NC(=O)NC1=O
- T/C (dose: 6.25 mg/kg/injection, schedule: Q01DX010 (ip), vehicle: alkali diluted with saline): 104 % of control
- T/C (dose: 12.5 mg/kg/injection, schedule: Q01DX010 (ip), vehicle: alkali diluted with saline): 96 % of control
- T/C (dose: 25.0 mg/kg/injection, schedule: Q01DX010 (ip), vehicle: alkali diluted with saline): 107 % of control
- T/C (dose: 50.0 mg/kg/injection, schedule: Q01DX010 (ip), vehicle: alkali diluted with saline): 102 % of control
- T/C (dose: 100.0 mg/kg/injection, schedule: Q01DX010 (ip), vehicle: alkali diluted with saline): 104 % of control
- T/C (dose: 200.0 mg/kg/injection, schedule: Q01DX010 (ip), vehicle: alkali diluted with saline): 107 % of control

SMILES: C[C@H]1C(=O)O[C@@H]2CCN3CC=C(COC(=O)[C@](C)(O)[C@@]1(C)O)[C@H]23
- T/C (dose: 37.5 mg/kg/injection, schedule: Q01DX Z (ip), vehicle: carboxymethylcellulose (CMC)): 91 % of control
- T/C (dose: 75.0 mg/kg/injection, schedule: Q01DX Z (ip), vehicle: carboxymethylcellulose (CMC)): 110 % of control
- T/C [3]: 107 % of control
- T/C (dose: 300.0 mg/kg/injection, schedule: Q01DX Z (ip), vehicle: carboxymethylcellulose (CMC)): 104 % of control

SMILES: CN(C)c1ccc(/C=C\c2ccnc3ccccc23)cc1
- T/C (dose: 1.87 mg/kg/injection, schedule: Q01DX Z (ip), vehicle: carboxymethylcellulose (CMC)): 106 % of control
- T/C (dose: 3.75 mg/kg/injection, schedule: Q01DX Z (ip), vehicle: carboxymethylcellulose (CMC)): 97 % of control
- T/C (dose: 7.5 mg/kg/injection, schedule: Q01DX Z (ip), vehicle: carboxymethylcellulose (CMC)): 100 % of control
- T/C (dose: 15.0 mg/kg/injection, schedule: Q01DX Z (ip), vehicle: carboxymethylcellulose (CMC)): 91 % of control
